In the NIST ThermoML archive (doi:10.1016/j.jct.2005.05.004):
± gives the expanded uncertainty stated by the source.

Legend:
[1] = xn = mol fraction of the nth substance listed; settings: 298.15 K, 101.32 kPa, Liquid, Vibrating tube method
[2] = refractive index (Na D-line) (dimensionless); xn = mol fraction of the nth substance listed; settings: 298.15 K, 101.32 kPa, Liquid
[3] = 298.15 K; 101.33 kPa; Liquid; Vibrating tube method
[4] = refractive index (Na D-line) (dimensionless); settings: 298.15 K; 101.33 kPa; Liquid

Cc1ccccc1 [toluene] + CCO
Settings	mass density, [1] [kg/m3]	refractive index, [2]
x1 = 0.0476	792.25 ± 0.44	1.3699 ± 0.0025
x1 = 0.1205	801.71 ± 0.44	1.385 ± 0.0025
x1 = 0.1948	810 ± 0.43	1.3993 ± 0.0025
x1 = 0.2994	820.14 ± 0.43	1.4163 ± 0.0025
x1 = 0.3992	828.34 ± 0.43	1.4311 ± 0.0025
x1 = 0.4884	834.71 ± 0.43	1.443 ± 0.0025
x1 = 0.5577	839.3 ± 0.43	1.4518 ± 0.0025
x1 = 0.5994	841.81 ± 0.43	1.4565 ± 0.0025
x1 = 0.7159	848.36 ± 0.43	1.4682 ± 0.0025
x1 = 0.7646	850.92 ± 0.43	1.4732 ± 0.0025
x1 = 0.8915	857.06 ± 0.43	1.485 ± 0.0025
x1 = 0.8917	857.09 ± 0.43	1.485 ± 0.0025

Cc1ccccc1 [toluene] + CCCO
Settings	mass density, [1] [kg/m3]	refractive index, [2]
x1 = 0.0609	805.41 ± 0.43	1.3918 ± 0.0025
x1 = 0.0969	808.53 ± 0.43	1.397 ± 0.0025
x1 = 0.1939	816.4 ± 0.43	1.4108 ± 0.0025
x1 = 0.3036	824.3 ± 0.43	1.4249 ± 0.0025
x1 = 0.3965	830.4 ± 0.43	1.4349 ± 0.0025
x1 = 0.4988	836.58 ± 0.43	1.4469 ± 0.0025
x1 = 0.5524	839.64 ± 0.43	1.4509 ± 0.0025
x1 = 0.5932	841.82 ± 0.43	1.4533 ± 0.0025
x1 = 0.692	847.02 ± 0.43	1.466 ± 0.0025
x1 = 0.77	851.01 ± 0.43	1.473 ± 0.0025
x1 = 0.9274	858.78 ± 0.43	1.4873 ± 0.0025
x1 = 0.9343	859.08 ± 0.43	1.488 ± 0.0025

CCI [iodoethane]
Settings	mass density [kg/m3]	refractive index
[3]	1923.75 ± 0.76	–
[4]	–	1.5095 ± 0.0016

CO [methanol]
Settings	mass density [kg/m3]	refractive index
[3]	787.98 ± 0.43	–
[4]	–	1.3262 ± 0.0016

CCI [iodoethane] + CO
Settings	mass density, [1] [kg/m3]	refractive index, [2]
x2 = 0.1198	1843.6 ± 0.8	1.4964 ± 0.0025
x2 = 0.1399	1829.8 ± 0.8	1.4938 ± 0.0025
x2 = 0.2068	1783 ± 0.8	1.4869 ± 0.0025
x2 = 0.26	1743.6 ± 0.8	1.4787 ± 0.0025
x2 = 0.4066	1622.2 ± 0.8	1.4578 ± 0.0025
x2 = 0.4234	1606.9 ± 0.8	1.4553 ± 0.0025
x2 = 0.4808	1552.1 ± 0.8	1.4451 ± 0.0025
x2 = 0.4954	1537.5 ± 0.8	1.4436 ± 0.0025
x2 = 0.5699	1458.5 ± 0.9	1.4302 ± 0.0025
x2 = 0.6771	1329.5 ± 0.9	1.4084 ± 0.0025
x2 = 0.7989	1156.8 ± 1	1.3821 ± 0.0025
x2 = 0.9094	969.6 ± 1.1	1.3534 ± 0.0025

CCI [iodoethane] + CCCO
Settings	mass density, [1] [kg/m3]	refractive index, [2]
x2 = 0.0332	1887.25 ± 0.99	1.505 ± 0.0025
x2 = 0.0469	1872.23 ± 0.99	1.503 ± 0.0025
x2 = 0.0528	1865.57 ± 0.99	1.502 ± 0.0025
x2 = 0.2862	1611.62 ± 0.89	1.4688 ± 0.0025
x2 = 0.3861	1501.9 ± 0.87	1.4567 ± 0.0025
x2 = 0.4714	1407.06 ± 0.86	1.447 ± 0.0025
x2 = 0.5981	1264.7 ± 0.84	1.4299 ± 0.0025
x2 = 0.6984	1150.74 ± 0.83	1.418 ± 0.0025
x2 = 0.7894	1046.25 ± 0.82	1.4077 ± 0.0025
x2 = 0.8728	949.54 ± 0.82	1.397 ± 0.0025
x2 = 0.9101	905.96 ± 0.82	1.393 ± 0.0025

CCO [ethanol]
Settings	mass density [kg/m3]	refractive index
[3]	785.32 ± 0.43	–
[4]	–	1.3592 ± 0.0016

CCCO [propan-1-ol]
Settings	mass density [kg/m3]	refractive index
[3]	799.69 ± 0.43	–
[4]	–	1.3829 ± 0.0016

CCI [iodoethane] + Cc1ccccc1
Settings	mass density, [1] [kg/m3]	refractive index, [2]
x2 = 0.1279	1749.5 ± 1	1.5056 ± 0.0025
x2 = 0.2014	1655.8 ± 1	1.5038 ± 0.0025
x2 = 0.3085	1526.9 ± 0.9	1.5012 ± 0.0025
x2 = 0.3955	1428.3 ± 0.9	1.5002 ± 0.0025
x2 = 0.4476	1371.7 ± 0.8	1.499 ± 0.0025
x2 = 0.4678	1350.2 ± 0.8	1.4992 ± 0.0025
x2 = 0.4961	1320.5 ± 0.8	1.4983 ± 0.0025
x2 = 0.5735	1241.7 ± 0.8	1.4974 ± 0.0025
x2 = 0.6009	1214.7 ± 0.8	1.4968 ± 0.0025
x2 = 0.6974	1122.5 ± 0.7	1.4959 ± 0.0025
x2 = 0.7276	1094.6 ± 0.7	1.4957 ± 0.0025
x2 = 0.7984	1031 ± 0.7	1.4948 ± 0.0025
x2 = 0.8866	954.9 ± 0.7	1.4943 ± 0.0025
x2 = 0.9322	916.9 ± 0.7	1.494 ± 0.0025

CCI [iodoethane] + CCO
Settings	mass density, [1] [kg/m3]	refractive index, [2]
x2 = 0.0481	1880.86 ± 0.91	1.503 ± 0.0025
x2 = 0.0942	1839.5 ± 0.9	1.4971 ± 0.0025
x2 = 0.2302	1712.7 ± 0.86	1.479 ± 0.0025
x2 = 0.29	1654.4 ± 0.87	1.4701 ± 0.0025
x2 = 0.3989	1543.6 ± 0.85	1.4535 ± 0.0025
x2 = 0.4889	1447.12 ± 0.86	1.442 ± 0.0025
x2 = 0.6035	1316.7 ± 0.86	1.4241 ± 0.0025
x2 = 0.687	1215.7 ± 0.89	1.4093 ± 0.0025
x2 = 0.7935	1078.8 ± 0.91	1.3929 ± 0.0025
x2 = 0.8994	933.27 ± 0.94	1.3761 ± 0.0025
x2 = 0.9522	856.7 ± 0.97	1.3675 ± 0.0025

Cc1ccccc1 [toluene] + CO
Settings	mass density, [1] [kg/m3]	refractive index, [2]
x1 = 0.0491	797.2 ± 0.4	1.3464 ± 0.0025
x1 = 0.1058	806.2 ± 0.4	1.366 ± 0.0025
x1 = 0.199	818.1 ± 0.4	1.3921 ± 0.0025
x1 = 0.3361	831.1 ± 0.4	1.4215 ± 0.0025
x1 = 0.4097	836.6 ± 0.4	1.4337 ± 0.0025
x1 = 0.4501	839.2 ± 0.4	1.4402 ± 0.0025
x1 = 0.5024	842.4 ± 0.4	1.4478 ± 0.0025
x1 = 0.5393	844.4 ± 0.4	1.4527 ± 0.0025
x1 = 0.5818	846.6 ± 0.4	1.4579 ± 0.0025
x1 = 0.6961	851.7 ± 0.4	1.47 ± 0.0025
x1 = 0.7764	854.8 ± 0.4	1.4778 ± 0.0025
x1 = 0.8695	858 ± 0.4	1.485 ± 0.0025
x1 = 0.9416	860.2 ± 0.4	1.4904 ± 0.0025

Cc1ccccc1 [toluene]
Settings	mass density [kg/m3]	refractive index
[3]	862.28 ± 0.43	–
[4]	–	1.4938 ± 0.0016
